From ChEMBL document CHEMBL3785073, “Antiviral Indolosesquiterpenoid Xiamycins C-E from a Halophilic Actinomycete” (J Nat Prod, 2016)
Active and inactive are the calls of the source. The rule behind the calls is not given here.

Experiments:
[1] = Cytotoxicity against African green monkey Vero cells after 48 hrs by MTT assay; type: cell-based; conditions: chlorocebus sabaeus
[2] = Selectivity index, ratio of CC50 for African green monkey Vero cells to EC50 for PEDV infected in African green monkey Vero cells
[3] = system: Porcine epidemic diarrhea virus; assay: Antiviral activity against PEDV infected in African green monkey Vero cells assessed as suppression of GP6 neucleocapsid protein expression after 24 hrs by Western blot analysis; type: functional, cell-based
[4] = system: Porcine epidemic diarrhea virus; assay: Antiviral activity against PEDV infected in African green monkey Vero cells assessed as reduction in virus-induced cytopathic effect after 72 hrs by MTT assay; type: functional, cell-based
[5] = system: Porcine epidemic diarrhea virus; assay: Antiviral activity against PEDV infected in African green monkey Vero cells assessed as suppression of GP2 spike protein expression after 24 hrs by Western blot analysis; type: functional, cell-based
[6] = system: Porcine epidemic diarrhea virus; assay: Antiviral activity against PEDV infected in African green monkey Vero cells assessed as suppression of GP5 neucleocapsid protein mRNA level after 24 hrs by RT-PCR analysis; type: functional, cell-based
[7] = system: Porcine epidemic diarrhea virus; assay: Antiviral activity against PEDV infected in African green monkey Vero cells assessed as suppression of GP6 neucleocapsid protein expression after 24 hrs by FITC-based immunofluorescence assay; type: functional, cell-based
[8] = system: Porcine epidemic diarrhea virus; assay: Antiviral activity against PEDV infected in African green monkey Vero cells assessed as suppression of GP2 spike protein expression at 5 uM after 24 hrs by Western blot analysis; type: functional, cell-based
[9] = system: Porcine epidemic diarrhea virus; assay: Antiviral activity against PEDV infected in African green monkey Vero cells assessed as suppression of GP6 neucleocapsid protein mRNA level after 24 hrs by RT-PCR analysis; type: functional, cell-based
[10] = system: Porcine epidemic diarrhea virus; assay: Antiviral activity against PEDV infected in African green monkey Vero cells assessed as suppression of GP2 spike protein mRNA level after 24 hrs by RT-PCR analysis; type: functional, cell-based
[11] = system: Porcine epidemic diarrhea virus; assay: Antiviral activity against PEDV infected in African green monkey Vero cells assessed as suppression of GP6 neucleocapsid protein expression at 10 uM after 24 hrs by FITC-based immunofluorescence assay; type: functional, cell-based

For `COC(=O)[C@]1(C)[C@@H](O)CC[C@]2(C)c3cc4c(cc3[C@@H](O)C[C@@H]12)[nH]c1ccccc14`, the CC50 at 48 h [1] was 56 µM, the “Ratio CC50/EC50” value [2] was 60.31 and the Activity [3] was “Dose-dependent effect”. The EC50 [4] was 0.93 µM, the Activity [5] was “Dose-dependent effect” and the Activity [6] was “Dose-dependent effect”. For the same compound, the Activity [7] was “Dose-dependent effect”, the Activity [8] was “Dose-dependent effect” and the Activity [9] was “Dose-dependent effect”. For the same compound, the Activity [10] was “Dose-dependent effect”.
For `C[C@@]1(C(=O)O)[C@@H](O)CC[C@]2(C)c3cc4c([nH]c5ccccc54)c(Cl)c3CC[C@@H]12`, the CC50 at 48 h [1] was 162 µM, the “Ratio CC50/EC50” value [2] was 12.89 and the EC50 [4] was 12.8 µM.
With `C[C@@]1(C(=O)O)[C@@H](O)CC[C@]2(C)c3cc4c(cc3CC[C@@H]12)[nH]c1ccccc14` [XIAMYCIN] the CC50 at 48 h [1] was 138 µM, the “Ratio CC50/EC50” value [2] was 7 and the EC50 [4] was 20.1 µM.
In the case of `C[C@@]1(C(=O)O)[C@@H](O)CC[C@]2(C)c3cc4c(cc3[C@@H](O)C[C@@H]12)[nH]c1ccccc14`, the CC50 at 48 h [1] is reported as 76.9 µM, the “Ratio CC50/EC50” value [2] is reported as 6.75 and the EC50 [4] is reported as 11.5 µM.
With `COC(=O)[C@]1(C)[C@@H](O)CC[C@]2(C)c3cc4c(cc3C(=O)C[C@@H]12)[nH]c1ccccc14` the CC50 at 48 h [1] was 98.7 µM, the “Ratio CC50/EC50” value [2] was 34.63 and the EC50 [4] was 2.89 µM. The Activity [8] was “Active” and the Activity [10] was “Active”.
With `O=c1cnn([C@@H]2O[C@H](CO)[C@@H](O)[C@H]2O)c(=O)[nH]1` [6-AZAURIDINE] the Activity [11] was “Active”, the CC50 at 48 h [1] was 57.3 µM and the “Ratio CC50/EC50” value [2] was 12.7. The EC50 [4] was 4.48 µM and the Activity [8] was “Active”.
For `COC(=O)[C@]1(C)[C@@H](O)CC[C@]2(C)c3cc4c(cc3CC[C@@H]12)[nH]c1ccccc14`, the CC50 at 48 h [1] was 103 µM, the “Ratio CC50/EC50” value [2] was 18.09 and the EC50 [4] was 5.69 µM.
